“Also recorded” adds a separate entry of the source.
Experiment: Treatment-emergent adverse events (MedDRA, NCI-CTCAE v4.03), safety populations
Format: in vivo, human
Description: Overall safety in Parts A and B was assessed by tabulating TEAEs, coded using the Medical Dictionary for Regulatory Activities (MedDRA) version 22.1, and graded according to NCI-CTCAE v4.03 criteria. TEAEs were classified as related or unrelated to amcenestrant therapy based upon the local investigating physician’s clinical judgment. The safety population included all patients exposed to at least one dose of the study treatment. Results were analyzed using descriptive statistics.

SMILES: O=C(O)c1ccc2c(c1)CCCC(c1ccc(Cl)cc1Cl)=C2c1ccc(O[C@H]2CCN(CCCF)C2)cc1 [amcenestrant, 6-(2,4-Dichlorophenyl)−5-[4-[(3S)−1-(3-fluoropropyl)pyrrolidin-3-yl]oxyphenyl]−8,9-dihydro-7H-benzo[7]annulene-2-carboxylic acid]
- Headache, Treatment-related TEAEs, All Grades (Part B, 400 mg QD (N = 49)): 0 n (%)
- Headache, Treatment-related TEAEs, Grade 1 (Part B, 400 mg QD (N = 49)): 0 n (%)
- Headache, Treatment-related TEAEs, Grade 2 (Part B, 400 mg QD (N = 49)): 0 n (%)
- Headache, Treatment-related TEAEs, Grade ≥3 (Part B, 400 mg QD (N = 49)): 0 n (%)
- Hot flush, TEAEs, All grades (Part B, 400 mg QD (N = 49)): 7 (14.3) n (%)
- Hot flush, TEAEs, Grade 1 (Part B, 400 mg QD (N = 49)): 5 (10.2) n (%)
- Hot flush, TEAEs, Grade 2 (Part B, 400 mg QD (N = 49)): 2 (4.1) n (%)
- Hot flush, TEAEs, Grade ≥3 (Part B, 400 mg QD (N = 49)): 0 n (%)
- Hot flush, Treatment-related TEAEs, All Grades (Part B, 400 mg QD (N = 49)): 5 (10.2) n (%)
- Hot flush, Treatment-related TEAEs, Grade 1 (Part B, 400 mg QD (N = 49)): 5 (10.2) n (%)
- Hot flush, Treatment-related TEAEs, Grade 2 (Part B, 400 mg QD (N = 49)): 0 n (%)
- Hot flush, Treatment-related TEAEs, Grade ≥3 (Part B, 400 mg QD (N = 49)): 0 n (%)
- Hypertension, TEAEs, All grades (Part B, 400 mg QD (N = 49)): 4 (8.2) n (%)
- Hypertension, TEAEs, Grade 1 (Part B, 400 mg QD (N = 49)): 0 n (%)
- Hypertension, TEAEs, Grade 2 (Part B, 400 mg QD (N = 49)): 4 (8.2) n (%)
- Hypertension, TEAEs, Grade ≥3 (Part B, 400 mg QD (N = 49)): 0 n (%)
- Hypertension, Treatment-related TEAEs, All Grades (Part B, 400 mg QD (N = 49)): 1 (2.0) n (%)
- Hypertension, Treatment-related TEAEs, Grade 1 (Part B, 400 mg QD (N = 49)): 0 n (%)
- Hypertension, Treatment-related TEAEs, Grade 2 (Part B, 400 mg QD (N = 49)): 1 (2.0) n (%)
- Hypertension, Treatment-related TEAEs, Grade ≥3 (Part B, 400 mg QD (N = 49)): 0 n (%)
- Nasopharyngitis, TEAEs, All grades (Part B, 400 mg QD (N = 49)): 3 (6.1) n (%)
- Nasopharyngitis, TEAEs, Grade 1 (Part B, 400 mg QD (N = 49)): 3 (6.1) n (%)
- Nasopharyngitis, TEAEs, Grade 2 (Part B, 400 mg QD (N = 49)): 0 n (%)
- Nasopharyngitis, TEAEs, Grade ≥3 (Part B, 400 mg QD (N = 49)): 0 n (%)
- Nasopharyngitis, Treatment-related TEAEs, All Grades (Part B, 400 mg QD (N = 49)): 0 n (%)
- Nasopharyngitis, Treatment-related TEAEs, Grade 1 (Part B, 400 mg QD (N = 49)): 0 n (%)
- Nasopharyngitis, Treatment-related TEAEs, Grade 2 (Part B, 400 mg QD (N = 49)): 0 n (%)
- Nasopharyngitis, Treatment-related TEAEs, Grade ≥3 (Part B, 400 mg QD (N = 49)): 0 n (%)
- Nausea, TEAEs, All grades (Part B, 400 mg QD (N = 49)): 11 (22.4) n (%)
- Nausea, TEAEs, Grade 1 (Part B, 400 mg QD (N = 49)): 9 (18.4) n (%)
- Nausea, TEAEs, Grade 2 (Part B, 400 mg QD (N = 49)): 1 (2.0) n (%)
- Nausea, TEAEs, Grade ≥3 (Part B, 400 mg QD (N = 49)): 1 (2.0) n (%)
- Nausea, Treatment-related TEAEs, All Grades (Part B, 400 mg QD (N = 49)): 2 (4.1) n (%)
- Nausea, Treatment-related TEAEs, Grade 1 (Part B, 400 mg QD (N = 49)): 2 (4.1) n (%)
- Nausea, Treatment-related TEAEs, Grade 2 (Part B, 400 mg QD (N = 49)): 0 n (%)
- Nausea, Treatment-related TEAEs, Grade ≥3 (Part B, 400 mg QD (N = 49)): 0 n (%)
- Pain in extremity, TEAEs, All grades (Part B, 400 mg QD (N = 49)): 3 (6.1) n (%)
- Pain in extremity, TEAEs, Grade 1 (Part B, 400 mg QD (N = 49)): 2 (4.1) n (%)
- Pain in extremity, TEAEs, Grade 2 (Part B, 400 mg QD (N = 49)): 1 (2.0) n (%)
- Pain in extremity, Treatment-related TEAEs, All Grades (Part B, 400 mg QD (N = 49)): 0 n (%)
- Pain in extremity, Treatment-related TEAEs, Grade 1 (Part B, 400 mg QD (N = 49)): 0 n (%)
- Pain in extremity, Treatment-related TEAEs, Grade 2 (Part B, 400 mg QD (N = 49)): 0 n (%)
- Pain in extremity, Treatment-related TEAEs, Grade ≥3 (Part B, 400 mg QD (N = 49)): 0 n (%)
- Paresthesia, TEAEs, All grades (Part B, 400 mg QD (N = 49)): 3 (6.1) n (%)
- Paresthesia, TEAEs, Grade 1 (Part B, 400 mg QD (N = 49)): 3 (6.1) n (%)
- Paresthesia, TEAEs, Grade 2 (Part B, 400 mg QD (N = 49)): 0 n (%)
- Paresthesia, TEAEs, Grade ≥3 (Part B, 400 mg QD (N = 49)): 0 n (%)
- Paresthesia, Treatment-related TEAEs, All Grades (Part B, 400 mg QD (N = 49)): 1 (2.0) n (%)
- Paresthesia, Treatment-related TEAEs, Grade 1 (Part B, 400 mg QD (N = 49)): 1 (2.0) n (%)
- Paresthesia, Treatment-related TEAEs, Grade 2 (Part B, 400 mg QD (N = 49)): 0 n (%)
- Paresthesia, Treatment-related TEAEs, Grade ≥3 (Part B, 400 mg QD (N = 49)): 0 n (%)
- Pyrexia, TEAEs, All grades (Part B, 400 mg QD (N = 49)): 4 (8.2) n (%)
- Pyrexia, TEAEs, Grade 1 (Part B, 400 mg QD (N = 49)): 3 (6.1) n (%)
- Pyrexia, TEAEs, Grade 2 (Part B, 400 mg QD (N = 49)): 1 (2.0) n (%)
- Pyrexia, TEAEs, Grade ≥3 (Part B, 400 mg QD (N = 49)): 0 n (%)
- Pyrexia, Treatment-related TEAEs, All Grades (Part B, 400 mg QD (N = 49)): 0 n (%)
- Pyrexia, Treatment-related TEAEs, Grade 1 (Part B, 400 mg QD (N = 49)): 0 n (%)
- Pyrexia, Treatment-related TEAEs, Grade 2 (Part B, 400 mg QD (N = 49)): 0 n (%)
- Pyrexia, Treatment-related TEAEs, Grade ≥3 (Part B, 400 mg QD (N = 49)): 0 n (%)
- Rhinitis allergic, TEAEs, All grades (Part B, 400 mg QD (N = 49)): 3 (6.1) n (%)
- Rhinitis allergic, TEAEs, Grade 1 (Part B, 400 mg QD (N = 49)): 2 (4.1) n (%)
- Rhinitis allergic, TEAEs, Grade 2 (Part B, 400 mg QD (N = 49)): 1 (2.0) n (%)
- Rhinitis allergic, TEAEs, Grade ≥3 (Part B, 400 mg QD (N = 49)): 0 n (%)
- Rhinitis allergic, Treatment-related TEAEs, All Grades (Part B, 400 mg QD (N = 49)): 0 n (%)
- Rhinitis allergic, Treatment-related TEAEs, Grade 1 (Part B, 400 mg QD (N = 49)): 0 n (%)
- Rhinitis allergic, Treatment-related TEAEs, Grade 2 (Part B, 400 mg QD (N = 49)): 0 n (%)
- Rhinitis allergic, Treatment-related TEAEs, Grade ≥3 (Part B, 400 mg QD (N = 49)): 0 n (%)
- Urinary tract infection, TEAEs, All grades (Part B, 400 mg QD (N = 49)): 5 (10.2) n (%)
- Urinary tract infection, TEAEs, Grade 1 (Part B, 400 mg QD (N = 49)): 0 n (%)
- Urinary tract infection, TEAEs, Grade 2 (Part B, 400 mg QD (N = 49)): 5 (10.2) n (%)
- Urinary tract infection, TEAEs, Grade ≥3 (Part B, 400 mg QD (N = 49)): 0 n (%)
- Urinary tract infection, Treatment-related TEAEs, All Grades (Part B, 400 mg QD (N = 49)): 1 (2.0) n (%)
- Urinary tract infection, Treatment-related TEAEs, Grade 1 (Part B, 400 mg QD (N = 49)): 0 n (%)
- Urinary tract infection, Treatment-related TEAEs, Grade 2 (Part B, 400 mg QD (N = 49)): 1 (2.0) n (%)
- Urinary tract infection, Treatment-related TEAEs, Grade ≥3 (Part B, 400 mg QD (N = 49)): 0 n (%)
- Vomiting, TEAEs, All grades (Part B, 400 mg QD (N = 49)): 14 (28.6) n (%)
- Vomiting, TEAEs, Grade 1 (Part B, 400 mg QD (N = 49)): 10 (20.4) n (%)
- Vomiting, TEAEs, Grade 2 (Part B, 400 mg QD (N = 49)): 3 (6.1) n (%)
- Vomiting, TEAEs, Grade ≥3 (Part B, 400 mg QD (N = 49)): 1 (2.0) n (%)
- Vomiting, Treatment-related TEAEs, All Grades (Part B, 400 mg QD (N = 49)): 4 (8.2) n (%)
- Vomiting, Treatment-related TEAEs, Grade 1 (Part B, 400 mg QD (N = 49)): 4 (8.2) n (%)
- Vomiting, Treatment-related TEAEs, Grade 2 (Part B, 400 mg QD (N = 49)): 0 n (%)
- Vomiting, Treatment-related TEAEs, Grade ≥3 (Part B, 400 mg QD (N = 49)): 0 n (%)
- treatment-related TEAE arthralgia, patients (Part B, 400 mg QD (n = 49)): 8.2%
- treatment-related TEAE constipation, patients (Part B, 400 mg QD (n = 49)): 6.1%
- treatment-related TEAE gastroesophageal reflux disease, patients (Part B, 400 mg QD (n = 49)): 6.1%
- treatment-related TEAE hot flush, patients (Part B, 400 mg QD (n = 49)): 10.2%
- treatment-related TEAE vomiting, patients (Part B, 400 mg QD (n = 49)): 8.2%
- patients with serious TEAEs (Part B, 13/49): 26.5%
- patients with at least one Grade ≥3 TEAE (Part B, 16/49, none considered related to amcenestrant): 32.7%
- cardiac non-treatment-related TEAE (Part B, Grade 1 sinus bradycardia): One cardiac non-treatment-related TEAE was reported
- Grade ≥3 treatment-related adverse events (Parts A and B): No Grade ≥3 treatment-related adverse events; also recorded: no treatment-related TEAEs of Grade ≥3 occurred
- clinically significant cardiac or eye safety findings (Parts A and B): no clinically significant cardiac or eye safety findings were observed

From article PMC9284491 (Nature Communications, 2022)
